Results from US10202367B2, “Heterocyclic compounds and methods of use thereof” (priority 2014, dated 2019).
Several values for one entry are separate records, joined by “and”; a condition that tells them apart may be missing. Identical values can stand only once.

Columns and labels:
[1] = Aqueous solubility in PBS; type: physicochemical
[2] = Stability in PBS or PBS/acetonitrile (1/1); type: physicochemical; settings: 10 μM, PBS and PBS/acetonitrile (1/1), pH 7.4, room temperature, after 48 hours
Description: (§1) Procedure: […] The mixtures were sampled every hour for eight hours or every 8 hours for 48 hours and analyzed by RP HPLC/UV/HRMS. The analytical RP HPLCUV/HRMS system utilized for the analysis was a Waters Acquity system with UV-detection and mass-detection (Waters SQD). […] Absolute areas under the curve were compared at each time point to determine relative percent compound remaining. The masses of potential adducts were searched for in the final samples to determine if any detectable adduct formed. All samples were prepared in duplicate and the average plotted. Ethacrynic acid, a known Michael acceptor, was used as a positive control. […] To determine the stability of the probe compound to nucleophilic degradation, the compound was dissolved in the two solvent systems above in the presence of 50 μM dithiothreitol (DTT) (FIGS. 2A and 2B).

[3] = Stability to nucleophilic degradation in presence of 50 μM dithiothreitol; type: physicochemical; settings: 10 μM, 50 μM DTT, PBS and PBS/acetonitrile (1/1), after 8 hours
Description: as §1

HCVsc, genotype 2a = type: cell-based, Hepatitis C virus; settings: 10 μM
GT 2a replicon RNA = type: cell-based, Hepatitis C virus
[4] = tested on: HCV replicon (GT 2a) cells; type: cell-based, Hepatitis C virus
HCVpp GT 1a = test: HCVpp entry assay; type: cell-based, Hepatitis C virus; settings: Huh7.5.1 cells
VSVpp = type: cell-based, vesicular stomatitis virus
HCVcc-RLuc = HCVcc-RLuc assay, combination of compound 3 with anti-HCV drugs (CalcuSyn / MacSynergy II); type: cell-based, Hepatitis C virus; settings: combination
Cell permeability = type: in vitro ADME
in vitro = settings: rat, microsomes, Rat liver microsomes t ½ (min)

SMILES | Sol. [1] [µg/mL] | Permeability (le^−6 cm/s) (Cell permeability) | half-life (in vitro) [min] | also measured
Cc1cccc(Cl)c1-c1nc(CN2CCC(C(=O)NCCCN3C[C@H](C)C[C@H](C)C3)CC2)c(C)o1 [Compound 1, 1-((2-(2-Chloro-6-methylphenyl)-5-methyloxazol-4-yl)methyl)-N-(3-(cis-3,5-dimethylpiperidin-1-yl)propyl)piperidine-4-carboxamide] | >74.0 | – | – | solubility ([1]; phosphate buffered saline (PBS), aqueous buffer, PBS, pH 7.4, room temperature (23° C.)): > 74 µg/mL and > 147 µM; sample still detected in the supernatant [2]: greater than 97%; degradation in presence of dithiothreitol [3]: no measurable degradation
Cc1ccccc1-c1nc(CN2CCC(C(=O)NCCCN3C[C@H](C)C[C@H](C)C3)CC2)c(C)o1 [Compound 3] | 53.9 | – | – | inhibitory activity on HCVsc infection level (HCVsc, genotype 2a): dramatic inhibitory activities; inhibitory effect on HCV replication, transient transfection with GT 2a replicon RNA (GT 2a replicon RNA; 10 μM): no inhibitory effect; % RLU at 10 μM, HCV subgenomic replicon Transient GT 2a (GT 2a replicon RNA; Huh7.5.1 cells, 48 h): 105 % RLU; inhibitory effect on HCV replication, GT 2a replicon cell line ([4]; 10 μM): no inhibitory effect; % RLU at 10 μM, HCV subgenomic replicon GT 2a cell line ([4]; 48 h): 103 % RLU; % RLU at 10 μM, HCVpp GT 1a (HCVpp GT 1a): < 30 % RLU; % RLU at 10 μM, VSV pp (VSVpp): ~50 % RLU; antiviral effect in combination with ribavirin, interferon, telaprevir, daclatasvir, cyclosporin A and 2′-C-methylcytidine (HCVcc-RLuc): synergistic
CCN(CC)CCCCNC(=O)C1CCN(Cc2nc(-c3cc(OC)cc(OC)c3)oc2C)CC1 [Compound 8] | >72.0 | 10.4 | – | –
Cc1ccccc1-c1nc(CN2CCC(C(=O)NCCN3CCCCC3)CC2)c(C)o1 [Compound 11] | 47 | 987.3 | – | –
Cc1oc(-c2c(C)c(C)c(C)c(C)c2C)nc1CN1CCC(C(=O)NCCCN2C[C@H](C)C[C@H](C)C2)CC1 [Compound 56] | – | 455.2 | – | –
Cc1ccccc1-c1nc(CC2CCC[C@@H](C(=O)CCCCN3C[C@H](C)C[C@H](C)C3)C2)c(C)o1 (some centres unmarked) [Compound 66] | 57.8 | 864.8 | 3.9 | –
Cc1ccccc1-c1nc(CN2CCC[C@@H](C(=O)NCCCN3C[C@H](C)C[C@H](C)C3)C2)c(C)o1 [Compound 67] | 57.8 | 864.8 | 3.9 | –
C[C@@H]1C[C@H](C)CN(CCCNC(=O)C2CCN(Cc3oc(-c4cc(C(F)(F)F)cc(C(F)(F)F)c4)nc3C(F)(F)F)CC2)C1 [Compound 68] | 2.5 | 1061 | 16.4 | –
CC1CCCN(CCCNC(=O)C2CCN(Cc3oc(-c4cc(C(F)(F)F)cc(C(F)(F)F)c4)nc3C(F)(F)F)CC2)C1 (centres unmarked) [Compound 69] | – | >1397 | 5.7 | –
